Results on 1 compound are retold here after paper PMC12712055, “3D-MINFLUX nanoscopy reveals distinct allosteric mechanisms for activation and modulation of PIEZO1 by Yoda1” (Nature Communications, 2025).

What all share (assay): calcium imaging (genetically encoded Ca2+ indicator), peak F/F0
What all share (format): cell-based

Assay [1] deals with T1, mouse PIEZO1 (PIEZO1-mScarlet / PIEZO1-ALFA-mGL) (Mus musculus, UniProt E2JF22).
T1 construct: full-length; C-terminal mScarlet (SG linker), or ALFA tag inserted after H86 plus C-terminal mGreenLantern (SG linker); transiently expressed in N2a-P1KO (mouse Neuro-2a PIEZO1-knockout) cells; homotrimer

Assay [2] concerns the target T2, mouse PIEZO1 (PIEZO1-mScarlet / PIEZO1-ALFA-mGL) (Mus musculus, UniProt E2JF22, F1715A/V1714A).
T2 construct: full-length; C-terminal mScarlet (SG linker), or ALFA tag inserted after H86 plus C-terminal mGreenLantern (SG linker); transiently expressed in N2a-P1KO (mouse Neuro-2a PIEZO1-knockout) cells; homotrimer

Assay [3] concerns the target T3, mouse PIEZO1 (PIEZO1-mScarlet / PIEZO1-ALFA-mGL) (Mus musculus, UniProt E2JF22, A2094W).
T3 construct: full-length; C-terminal mScarlet (SG linker), or ALFA tag inserted after H86 plus C-terminal mGreenLantern (SG linker); transiently expressed in N2a-P1KO (mouse Neuro-2a PIEZO1-knockout) cells; homotrimer

Each structure is given as a SMILES string.

T2 sequence (E2JF22 whole entry V1714A/F1715A): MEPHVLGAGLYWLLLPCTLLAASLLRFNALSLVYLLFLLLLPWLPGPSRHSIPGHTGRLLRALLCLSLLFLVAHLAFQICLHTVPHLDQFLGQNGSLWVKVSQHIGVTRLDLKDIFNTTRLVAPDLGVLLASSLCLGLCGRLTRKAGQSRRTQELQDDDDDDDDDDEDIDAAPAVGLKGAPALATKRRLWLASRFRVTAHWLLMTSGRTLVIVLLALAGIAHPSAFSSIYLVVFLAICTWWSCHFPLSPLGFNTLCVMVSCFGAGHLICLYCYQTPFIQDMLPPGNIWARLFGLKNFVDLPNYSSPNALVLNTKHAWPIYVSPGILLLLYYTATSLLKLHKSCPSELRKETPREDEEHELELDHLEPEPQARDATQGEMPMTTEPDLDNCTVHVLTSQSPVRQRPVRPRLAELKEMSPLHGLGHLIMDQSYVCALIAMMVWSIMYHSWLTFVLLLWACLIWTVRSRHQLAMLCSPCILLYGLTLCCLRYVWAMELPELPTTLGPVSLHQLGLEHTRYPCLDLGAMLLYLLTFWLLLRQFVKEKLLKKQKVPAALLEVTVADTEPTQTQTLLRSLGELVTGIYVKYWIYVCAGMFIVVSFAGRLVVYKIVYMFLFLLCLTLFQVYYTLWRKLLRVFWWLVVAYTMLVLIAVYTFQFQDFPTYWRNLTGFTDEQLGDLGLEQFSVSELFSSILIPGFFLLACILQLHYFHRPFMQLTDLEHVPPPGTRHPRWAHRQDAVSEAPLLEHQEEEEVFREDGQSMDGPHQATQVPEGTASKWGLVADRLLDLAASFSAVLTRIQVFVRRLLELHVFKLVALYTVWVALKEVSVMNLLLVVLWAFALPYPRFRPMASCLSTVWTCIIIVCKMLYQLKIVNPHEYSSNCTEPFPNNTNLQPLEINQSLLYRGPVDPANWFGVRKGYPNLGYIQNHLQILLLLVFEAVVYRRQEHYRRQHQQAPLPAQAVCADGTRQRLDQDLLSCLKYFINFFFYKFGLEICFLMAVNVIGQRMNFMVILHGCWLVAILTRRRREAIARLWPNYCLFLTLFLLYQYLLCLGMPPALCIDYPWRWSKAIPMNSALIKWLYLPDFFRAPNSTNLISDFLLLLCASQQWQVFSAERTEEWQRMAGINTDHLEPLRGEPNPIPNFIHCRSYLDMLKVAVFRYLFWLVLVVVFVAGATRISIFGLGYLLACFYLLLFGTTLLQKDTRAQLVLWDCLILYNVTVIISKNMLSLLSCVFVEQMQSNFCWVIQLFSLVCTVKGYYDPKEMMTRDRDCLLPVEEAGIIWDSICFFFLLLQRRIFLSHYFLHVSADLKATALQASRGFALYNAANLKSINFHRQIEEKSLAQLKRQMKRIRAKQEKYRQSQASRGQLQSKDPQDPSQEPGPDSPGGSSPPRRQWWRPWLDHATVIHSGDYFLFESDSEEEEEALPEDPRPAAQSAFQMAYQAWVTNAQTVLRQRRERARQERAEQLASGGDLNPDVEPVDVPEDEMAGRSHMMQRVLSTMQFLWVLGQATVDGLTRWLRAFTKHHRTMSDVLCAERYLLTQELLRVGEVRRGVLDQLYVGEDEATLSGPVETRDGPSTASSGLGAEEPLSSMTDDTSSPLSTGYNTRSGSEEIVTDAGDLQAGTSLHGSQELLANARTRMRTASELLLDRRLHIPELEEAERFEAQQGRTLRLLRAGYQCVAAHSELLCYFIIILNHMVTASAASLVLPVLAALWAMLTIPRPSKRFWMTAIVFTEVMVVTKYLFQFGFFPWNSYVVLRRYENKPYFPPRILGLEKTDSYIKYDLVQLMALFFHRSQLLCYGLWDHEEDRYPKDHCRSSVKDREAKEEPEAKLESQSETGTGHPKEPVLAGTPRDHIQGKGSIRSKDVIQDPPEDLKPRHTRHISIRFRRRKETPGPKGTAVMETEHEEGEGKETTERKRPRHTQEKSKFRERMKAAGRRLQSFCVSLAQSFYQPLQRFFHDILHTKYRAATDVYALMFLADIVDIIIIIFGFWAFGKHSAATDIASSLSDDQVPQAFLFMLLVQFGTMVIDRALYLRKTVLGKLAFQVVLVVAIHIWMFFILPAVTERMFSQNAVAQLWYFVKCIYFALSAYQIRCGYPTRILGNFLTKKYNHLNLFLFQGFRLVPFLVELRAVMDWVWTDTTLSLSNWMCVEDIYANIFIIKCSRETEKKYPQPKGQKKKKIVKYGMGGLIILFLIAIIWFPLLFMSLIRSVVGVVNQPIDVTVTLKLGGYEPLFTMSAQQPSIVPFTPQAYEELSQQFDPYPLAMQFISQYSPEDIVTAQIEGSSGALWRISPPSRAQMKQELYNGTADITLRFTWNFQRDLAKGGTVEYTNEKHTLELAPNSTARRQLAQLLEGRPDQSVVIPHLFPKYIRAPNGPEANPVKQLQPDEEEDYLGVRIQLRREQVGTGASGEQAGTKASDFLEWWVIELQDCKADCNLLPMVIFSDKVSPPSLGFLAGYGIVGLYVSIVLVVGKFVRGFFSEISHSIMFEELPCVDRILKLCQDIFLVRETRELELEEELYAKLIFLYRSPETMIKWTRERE
T3 sequence (E2JF22 whole entry A2094W): as the sequence (E2JF22 whole entry V1714A/F1715A) above, with A1714V, A1715F, A2094W counted along it
T1 sequence (E2JF22 whole entry): as the sequence (E2JF22 whole entry V1714A/F1715A) above, with A1714V, A1715F counted along it

One may read the EC50 as the concentration at which the effect is half-maximal. Consider `O=C(O)c1ccc(-c2nnc(SCc3c(Cl)cccc3Cl)s2)cc1` [Yoda2], for which the results for the concentration for a half-maximal effect (EC50) in assay [1], in assay [2] and in assay [3] were 30 nM, 67 nM and 7030 nM, respectively.
